{"source": "ChEMBL document CHEMBL5678810", "key": {"[1]": {"target": "Ribosomal protein S6 kinase alpha-2 (Homo sapiens) (UniProt Q15349)", "sequence (Q15349 whole entry, the tested form may be a part)": "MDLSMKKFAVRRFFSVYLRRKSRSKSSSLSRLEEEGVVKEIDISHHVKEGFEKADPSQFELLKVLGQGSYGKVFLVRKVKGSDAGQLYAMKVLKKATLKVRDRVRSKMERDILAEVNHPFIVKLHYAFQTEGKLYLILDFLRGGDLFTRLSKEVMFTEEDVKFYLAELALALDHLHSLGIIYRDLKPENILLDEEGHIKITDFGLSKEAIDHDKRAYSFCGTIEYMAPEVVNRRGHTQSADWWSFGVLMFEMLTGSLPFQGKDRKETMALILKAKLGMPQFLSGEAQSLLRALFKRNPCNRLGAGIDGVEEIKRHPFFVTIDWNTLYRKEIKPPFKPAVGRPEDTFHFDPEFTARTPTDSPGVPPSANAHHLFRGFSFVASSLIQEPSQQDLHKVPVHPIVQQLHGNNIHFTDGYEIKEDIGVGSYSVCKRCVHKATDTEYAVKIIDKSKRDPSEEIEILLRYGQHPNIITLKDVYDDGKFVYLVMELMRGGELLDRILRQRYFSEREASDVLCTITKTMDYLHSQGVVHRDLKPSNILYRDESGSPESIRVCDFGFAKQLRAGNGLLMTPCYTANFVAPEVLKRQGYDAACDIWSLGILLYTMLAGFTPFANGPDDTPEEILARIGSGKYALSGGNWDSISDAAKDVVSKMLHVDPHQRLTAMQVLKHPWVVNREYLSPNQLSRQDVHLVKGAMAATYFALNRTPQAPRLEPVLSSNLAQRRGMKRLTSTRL", "assay": "Inhibition of T7 bacteriophage fused human N-terminal RSK3 Kinase domain-1 at 10 uM by KINOMEscan analysis relative to control"}, "[2]": {"target": "Ribosomal protein S6 kinase alpha-6 (Homo sapiens) (UniProt Q9UK32)", "assay": "Inhibition of T7 bacteriophage fused human N-terminal RSK4 Kinase domain-1 at 10 uM by KINOMEscan analysis relative to control"}, "[3]": {"target": "Ribosomal protein S6 kinase beta-1 (Homo sapiens) (UniProt P23443)", "assay": "Inhibition of T7 bacteriophage fused human S6K1 at 10 uM by KINOMEscan analysis relative to control"}, "[4]": {"target": "STE20/SPS1-related proline-alanine-rich protein kinase (Homo sapiens) (UniProt Q9UEW8)", "assay": "Inhibition of T7 bacteriophage fused human STK39 at 10 uM by KINOMEscan analysis relative to control"}, "[5]": {"target": "T1, Mitogen-activated protein kinase kinase kinase 7 (Homo sapiens) (UniProt O43318)", "T1 sequence (whole entry)": "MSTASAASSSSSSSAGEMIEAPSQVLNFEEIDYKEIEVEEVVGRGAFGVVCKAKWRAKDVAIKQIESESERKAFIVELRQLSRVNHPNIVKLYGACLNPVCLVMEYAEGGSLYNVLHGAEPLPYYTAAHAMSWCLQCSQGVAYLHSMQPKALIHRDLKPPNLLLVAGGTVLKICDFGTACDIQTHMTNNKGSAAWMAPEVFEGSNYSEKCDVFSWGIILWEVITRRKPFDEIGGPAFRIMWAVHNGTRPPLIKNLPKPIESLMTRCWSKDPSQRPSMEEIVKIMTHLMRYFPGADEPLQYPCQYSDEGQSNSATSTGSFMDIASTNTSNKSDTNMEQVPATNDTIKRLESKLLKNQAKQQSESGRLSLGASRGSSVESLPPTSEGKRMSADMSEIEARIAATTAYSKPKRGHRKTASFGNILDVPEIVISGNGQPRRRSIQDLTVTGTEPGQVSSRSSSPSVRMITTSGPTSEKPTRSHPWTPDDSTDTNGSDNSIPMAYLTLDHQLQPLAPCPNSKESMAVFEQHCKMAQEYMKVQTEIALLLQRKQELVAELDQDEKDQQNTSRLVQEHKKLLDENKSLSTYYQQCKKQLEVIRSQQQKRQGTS", "assay": "Inhibition of T7 bacteriophage fused human TAK1 at 10 uM by KINOMEscan analysis relative to control"}, "[6]": {"target": "T2, Serine/threonine-protein kinase TAO1 (Homo sapiens) (UniProt Q7L7X3)", "T2 sequence (whole entry)": "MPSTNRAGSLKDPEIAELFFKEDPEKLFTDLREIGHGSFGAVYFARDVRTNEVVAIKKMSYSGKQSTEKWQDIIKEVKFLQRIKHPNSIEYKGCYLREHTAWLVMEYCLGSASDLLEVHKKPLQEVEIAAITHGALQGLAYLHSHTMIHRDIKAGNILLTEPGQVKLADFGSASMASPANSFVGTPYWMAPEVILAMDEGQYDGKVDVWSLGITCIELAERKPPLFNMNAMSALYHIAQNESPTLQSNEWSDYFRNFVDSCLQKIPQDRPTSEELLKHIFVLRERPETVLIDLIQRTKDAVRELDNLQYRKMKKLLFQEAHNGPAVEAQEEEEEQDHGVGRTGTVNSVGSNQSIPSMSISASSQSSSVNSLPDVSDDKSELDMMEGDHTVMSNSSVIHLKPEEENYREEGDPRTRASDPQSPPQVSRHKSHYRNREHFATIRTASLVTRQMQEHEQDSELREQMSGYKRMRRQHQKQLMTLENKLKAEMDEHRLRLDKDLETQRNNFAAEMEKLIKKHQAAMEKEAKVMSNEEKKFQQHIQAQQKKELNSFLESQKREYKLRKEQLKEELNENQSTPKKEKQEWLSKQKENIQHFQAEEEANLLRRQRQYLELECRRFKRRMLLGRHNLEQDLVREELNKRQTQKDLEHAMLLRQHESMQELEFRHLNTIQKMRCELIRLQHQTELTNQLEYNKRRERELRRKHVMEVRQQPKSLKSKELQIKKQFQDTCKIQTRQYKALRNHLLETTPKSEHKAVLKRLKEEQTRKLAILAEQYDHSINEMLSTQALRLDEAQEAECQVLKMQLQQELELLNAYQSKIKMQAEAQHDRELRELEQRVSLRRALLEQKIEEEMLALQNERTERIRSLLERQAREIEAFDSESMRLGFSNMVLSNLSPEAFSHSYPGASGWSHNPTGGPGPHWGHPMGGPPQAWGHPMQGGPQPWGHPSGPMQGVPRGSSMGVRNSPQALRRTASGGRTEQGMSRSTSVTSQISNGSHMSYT", "assay": "Inhibition of T7 bacteriophage fused human TAOK1 at 10 uM by KINOMEscan analysis relative to control"}, "[7]": {"target": "TGF-beta receptor type-2 (Homo sapiens) (UniProt P37173)", "sequence (P37173 whole entry, the tested form may be a part)": "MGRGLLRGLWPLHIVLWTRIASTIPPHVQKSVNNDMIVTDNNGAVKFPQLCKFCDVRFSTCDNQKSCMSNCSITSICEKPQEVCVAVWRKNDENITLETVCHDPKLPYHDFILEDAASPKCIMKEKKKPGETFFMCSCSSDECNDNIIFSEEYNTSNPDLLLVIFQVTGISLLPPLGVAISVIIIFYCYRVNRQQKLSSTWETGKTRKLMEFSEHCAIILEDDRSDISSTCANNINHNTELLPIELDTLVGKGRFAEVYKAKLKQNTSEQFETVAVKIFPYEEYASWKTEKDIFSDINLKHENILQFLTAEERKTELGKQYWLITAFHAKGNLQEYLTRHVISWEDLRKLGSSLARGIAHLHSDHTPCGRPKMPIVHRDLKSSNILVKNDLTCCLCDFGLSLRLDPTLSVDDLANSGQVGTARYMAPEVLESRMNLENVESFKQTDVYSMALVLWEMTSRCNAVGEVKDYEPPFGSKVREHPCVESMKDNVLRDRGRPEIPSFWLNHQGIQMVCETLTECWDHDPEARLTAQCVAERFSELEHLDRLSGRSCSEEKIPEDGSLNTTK", "assay": "Inhibition of T7 bacteriophage fused human TGFBR2 at 10 uM by KINOMEscan analysis relative to control"}, "[8]": {"target": "Tyrosine-protein kinase receptor Tie-1 (Homo sapiens) (UniProt P35590)", "sequence (P35590 whole entry, the tested form may be a part)": "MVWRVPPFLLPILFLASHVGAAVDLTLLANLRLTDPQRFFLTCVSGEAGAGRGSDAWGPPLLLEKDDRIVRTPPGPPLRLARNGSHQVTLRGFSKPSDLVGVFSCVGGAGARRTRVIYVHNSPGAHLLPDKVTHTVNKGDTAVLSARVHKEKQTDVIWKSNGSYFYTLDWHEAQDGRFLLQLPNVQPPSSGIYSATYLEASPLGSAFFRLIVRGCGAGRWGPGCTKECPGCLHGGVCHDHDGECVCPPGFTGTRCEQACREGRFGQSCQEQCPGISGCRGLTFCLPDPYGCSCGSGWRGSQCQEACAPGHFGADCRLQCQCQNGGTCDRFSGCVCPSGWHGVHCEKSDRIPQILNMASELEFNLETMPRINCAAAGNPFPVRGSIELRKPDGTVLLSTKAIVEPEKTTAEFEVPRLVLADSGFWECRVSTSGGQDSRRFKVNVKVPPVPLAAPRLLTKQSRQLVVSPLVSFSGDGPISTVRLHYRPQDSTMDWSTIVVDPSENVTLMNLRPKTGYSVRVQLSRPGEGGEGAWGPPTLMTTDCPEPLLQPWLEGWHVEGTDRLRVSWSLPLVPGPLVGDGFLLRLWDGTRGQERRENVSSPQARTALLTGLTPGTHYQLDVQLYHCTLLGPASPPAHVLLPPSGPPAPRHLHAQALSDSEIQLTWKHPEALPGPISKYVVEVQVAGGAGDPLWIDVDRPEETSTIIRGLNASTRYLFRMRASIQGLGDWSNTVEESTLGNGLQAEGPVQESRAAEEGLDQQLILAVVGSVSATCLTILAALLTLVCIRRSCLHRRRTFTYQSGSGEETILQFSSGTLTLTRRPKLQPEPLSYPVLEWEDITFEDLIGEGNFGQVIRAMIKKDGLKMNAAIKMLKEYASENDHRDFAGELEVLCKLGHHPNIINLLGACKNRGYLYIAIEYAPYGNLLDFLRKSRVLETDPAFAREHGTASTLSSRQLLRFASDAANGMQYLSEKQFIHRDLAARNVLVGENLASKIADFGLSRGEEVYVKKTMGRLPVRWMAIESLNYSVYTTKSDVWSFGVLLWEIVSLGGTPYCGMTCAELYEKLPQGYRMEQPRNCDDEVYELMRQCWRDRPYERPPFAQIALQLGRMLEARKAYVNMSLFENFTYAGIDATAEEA", "assay": "Inhibition of T7 bacteriophage fused human TIE1 at 10 uM by KINOMEscan analysis relative to control"}, "[9]": {"target": "Angiopoietin-1 receptor (Homo sapiens) (UniProt Q02763)", "assay": "Inhibition of T7 bacteriophage fused human TIE2 at 10 uM by KINOMEscan analysis relative to control"}, "[10]": {"target": "Non-receptor tyrosine-protein kinase TYK2 (Homo sapiens) (UniProt P29597)", "sequence (P29597 whole entry, the tested form may be a part)": "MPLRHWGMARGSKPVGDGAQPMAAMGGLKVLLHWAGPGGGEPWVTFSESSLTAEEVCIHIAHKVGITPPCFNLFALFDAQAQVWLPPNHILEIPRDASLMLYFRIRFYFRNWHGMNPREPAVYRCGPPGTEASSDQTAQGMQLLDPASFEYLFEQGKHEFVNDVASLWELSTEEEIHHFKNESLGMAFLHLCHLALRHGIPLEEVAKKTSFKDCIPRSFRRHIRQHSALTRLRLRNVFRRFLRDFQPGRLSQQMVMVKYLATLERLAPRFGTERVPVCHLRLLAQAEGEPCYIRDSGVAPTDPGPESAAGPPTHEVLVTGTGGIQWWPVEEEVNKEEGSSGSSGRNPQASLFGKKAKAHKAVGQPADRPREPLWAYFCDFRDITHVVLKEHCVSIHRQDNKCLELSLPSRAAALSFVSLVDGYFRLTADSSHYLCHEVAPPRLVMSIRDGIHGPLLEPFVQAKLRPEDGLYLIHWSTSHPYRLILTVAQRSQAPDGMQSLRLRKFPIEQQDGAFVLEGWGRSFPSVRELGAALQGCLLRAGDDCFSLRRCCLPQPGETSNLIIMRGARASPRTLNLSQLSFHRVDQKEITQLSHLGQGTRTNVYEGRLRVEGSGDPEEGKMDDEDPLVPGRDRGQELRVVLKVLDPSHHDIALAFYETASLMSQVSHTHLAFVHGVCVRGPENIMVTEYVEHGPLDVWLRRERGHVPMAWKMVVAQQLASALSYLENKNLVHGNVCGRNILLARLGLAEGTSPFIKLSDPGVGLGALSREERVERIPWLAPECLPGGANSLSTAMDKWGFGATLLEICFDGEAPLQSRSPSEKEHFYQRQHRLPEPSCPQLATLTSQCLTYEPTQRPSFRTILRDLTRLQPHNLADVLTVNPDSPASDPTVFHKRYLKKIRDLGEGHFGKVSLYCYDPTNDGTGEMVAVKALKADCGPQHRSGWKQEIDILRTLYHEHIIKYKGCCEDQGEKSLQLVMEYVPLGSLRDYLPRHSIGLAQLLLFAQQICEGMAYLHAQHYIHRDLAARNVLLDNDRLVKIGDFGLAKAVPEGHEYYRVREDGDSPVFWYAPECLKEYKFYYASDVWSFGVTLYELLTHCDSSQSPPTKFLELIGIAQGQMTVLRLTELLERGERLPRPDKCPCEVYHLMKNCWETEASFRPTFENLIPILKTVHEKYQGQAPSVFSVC", "assay": "Inhibition of T7 bacteriophage fused human TYK2 JH2 pseudokinase domain at 10 uM by KINOMEscan analysis relative to control"}, "[11]": {"target": "Vascular endothelial growth factor receptor 2 (Homo sapiens) (UniProt P35968)", "assay": "Inhibition of T7 bacteriophage fused human VEGFR2 at 10 uM by KINOMEscan analysis relative to control"}, "[12]": {"target": "Serine/threonine-protein kinase 32A (Homo sapiens) (UniProt Q8WU08)", "assay": "Inhibition of T7 bacteriophage fused human YANK1 at 10 uM by KINOMEscan analysis relative to control"}, "[13]": {"target": "Serine/threonine-protein kinase 32B (Homo sapiens) (UniProt Q9NY57)", "sequence (Q9NY57 whole entry, the tested form may be a part)": "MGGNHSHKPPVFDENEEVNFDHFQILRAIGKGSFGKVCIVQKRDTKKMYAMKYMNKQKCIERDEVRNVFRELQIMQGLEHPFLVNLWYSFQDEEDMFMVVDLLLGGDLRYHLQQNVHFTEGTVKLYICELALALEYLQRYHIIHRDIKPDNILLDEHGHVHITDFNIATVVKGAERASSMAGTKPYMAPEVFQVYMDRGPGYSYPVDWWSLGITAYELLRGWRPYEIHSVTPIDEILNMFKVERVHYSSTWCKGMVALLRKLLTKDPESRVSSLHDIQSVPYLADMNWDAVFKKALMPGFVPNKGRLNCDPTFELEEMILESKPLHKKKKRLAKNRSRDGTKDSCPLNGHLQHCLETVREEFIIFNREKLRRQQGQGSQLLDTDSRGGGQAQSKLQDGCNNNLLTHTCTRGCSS", "assay": "Inhibition of T7 bacteriophage fused human YANK2 at 10 uM by KINOMEscan analysis relative to control"}, "[14]": {"target": "Serine/threonine-protein kinase 32C (Homo sapiens) (UniProt Q86UX6)", "sequence (Q86UX6 whole entry, the tested form may be a part)": "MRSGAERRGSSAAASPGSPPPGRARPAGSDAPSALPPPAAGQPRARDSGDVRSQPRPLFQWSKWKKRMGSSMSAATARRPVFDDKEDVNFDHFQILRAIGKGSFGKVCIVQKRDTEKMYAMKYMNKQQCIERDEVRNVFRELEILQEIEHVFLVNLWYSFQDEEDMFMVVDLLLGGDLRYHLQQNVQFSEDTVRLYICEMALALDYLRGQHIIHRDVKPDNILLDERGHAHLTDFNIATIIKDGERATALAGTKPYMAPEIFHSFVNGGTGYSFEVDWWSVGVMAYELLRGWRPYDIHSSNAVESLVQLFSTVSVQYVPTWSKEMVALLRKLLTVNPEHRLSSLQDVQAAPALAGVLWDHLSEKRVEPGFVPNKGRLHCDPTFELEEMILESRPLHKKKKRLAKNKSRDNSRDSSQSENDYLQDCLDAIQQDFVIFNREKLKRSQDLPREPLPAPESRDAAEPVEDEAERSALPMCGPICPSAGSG", "assay": "Inhibition of T7 bacteriophage fused human YANK3 at 10 uM by KINOMEscan analysis relative to control"}, "[15]": {"target": "Serine/threonine-protein kinase 4 (Homo sapiens) (UniProt Q13043)", "sequence (Q13043 whole entry, looked up, the tested form may be a part)": "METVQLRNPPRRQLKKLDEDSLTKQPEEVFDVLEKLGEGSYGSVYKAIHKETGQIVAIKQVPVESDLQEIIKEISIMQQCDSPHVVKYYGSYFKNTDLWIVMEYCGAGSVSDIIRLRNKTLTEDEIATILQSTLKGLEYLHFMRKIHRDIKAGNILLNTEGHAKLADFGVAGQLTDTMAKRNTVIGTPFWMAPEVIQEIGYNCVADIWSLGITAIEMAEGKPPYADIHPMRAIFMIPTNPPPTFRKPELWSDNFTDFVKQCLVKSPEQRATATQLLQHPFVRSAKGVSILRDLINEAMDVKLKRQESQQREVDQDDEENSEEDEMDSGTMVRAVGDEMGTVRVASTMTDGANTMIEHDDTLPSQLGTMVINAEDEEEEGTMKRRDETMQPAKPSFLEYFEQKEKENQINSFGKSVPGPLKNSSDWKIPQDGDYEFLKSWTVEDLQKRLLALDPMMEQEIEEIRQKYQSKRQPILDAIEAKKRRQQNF", "assay": "Inhibition of T7 bacteriophage fused human MST1 at 10 uM by KINOMEscan analysis relative to control; values are per cent of control"}}}
{"smiles": "CCOc1cc(C(=O)N2CCC(N3CCN(C)CC3)CC2)ccc1Nc1ncc2c(n1)N(C1CCCC1)c1ccccc1C(=O)N2C", "values": [{"measurement": "inhibition", "setting": "[1]", "result": 100, "unit": "%"}, {"measurement": "inhibition", "setting": "[2]", "result": 100, "unit": "%"}, {"measurement": "inhibition", "setting": "[3]", "result": 100, "unit": "%"}, {"measurement": "inhibition", "setting": "[4]", "result": 100, "unit": "%"}, {"measurement": "inhibition", "setting": "[5]", "result": 100, "unit": "%"}, {"measurement": "inhibition", "setting": "[6]", "result": 79, "unit": "%"}, {"measurement": "inhibition", "setting": "[7]", "result": 100, "unit": "%"}, {"measurement": "inhibition", "setting": "[8]", "result": 100, "unit": "%"}, {"measurement": "inhibition", "setting": "[9]", "result": 100, "unit": "%"}, {"measurement": "inhibition", "setting": "[10]", "result": 100, "unit": "%"}, {"measurement": "inhibition", "setting": "[11]", "result": 100, "unit": "%"}, {"measurement": "inhibition", "setting": "[12]", "result": 100, "unit": "%"}, {"measurement": "inhibition", "setting": "[13]", "result": 100, "unit": "%"}, {"measurement": "inhibition", "setting": "[14]", "result": 100, "unit": "%"}, {"measurement": "residual activity", "setting": "[15]", "result": 100, "unit": "%"}]}
{"smiles": "COc1cc(N2CCC(N3CCN(C)CC3)CC2)ccc1Nc1ncc2c(n1)N(C)c1ccccc1C(=O)N2C", "values": [{"measurement": "inhibition", "setting": "[1]", "result": 83, "unit": "%"}, {"measurement": "inhibition", "setting": "[2]", "result": 92, "unit": "%"}, {"measurement": "inhibition", "setting": "[3]", "result": 100, "unit": "%"}, {"measurement": "inhibition", "setting": "[4]", "result": 39, "unit": "%"}, {"measurement": "inhibition", "setting": "[5]", "result": 98, "unit": "%"}, {"measurement": "inhibition", "setting": "[6]", "result": 28, "unit": "%"}, {"measurement": "inhibition", "setting": "[7]", "result": 100, "unit": "%"}, {"measurement": "inhibition", "setting": "[8]", "result": 100, "unit": "%"}, {"measurement": "inhibition", "setting": "[9]", "result": 100, "unit": "%"}, {"measurement": "inhibition", "setting": "[10]", "result": 100, "unit": "%"}, {"measurement": "inhibition", "setting": "[11]", "result": 84, "unit": "%"}, {"measurement": "inhibition", "setting": "[12]", "result": 100, "unit": "%"}, {"measurement": "inhibition", "setting": "[13]", "result": 100, "unit": "%"}, {"measurement": "inhibition", "setting": "[14]", "result": 100, "unit": "%"}, {"measurement": "residual activity", "setting": "[15]", "result": 100, "unit": "%"}]}
{"smiles": "COc1cc(C(=O)N2CCC(N3CCN(C)CC3)CC2)ccc1Nc1ncc2c(n1)N(C1CCCC1)c1ccccc1C(=O)N2C", "values": [{"measurement": "inhibition", "setting": "[1]", "result": 100, "unit": "%"}, {"measurement": "inhibition", "setting": "[2]", "result": 100, "unit": "%"}, {"measurement": "inhibition", "setting": "[3]", "result": 100, "unit": "%"}, {"measurement": "inhibition", "setting": "[4]", "result": 100, "unit": "%"}, {"measurement": "inhibition", "setting": "[5]", "result": 100, "unit": "%"}, {"measurement": "inhibition", "setting": "[6]", "result": 51, "unit": "%"}, {"measurement": "inhibition", "setting": "[7]", "result": 100, "unit": "%"}, {"measurement": "inhibition", "setting": "[8]", "result": 100, "unit": "%"}, {"measurement": "inhibition", "setting": "[9]", "result": 100, "unit": "%"}, {"measurement": "inhibition", "setting": "[10]", "result": 100, "unit": "%"}, {"measurement": "inhibition", "setting": "[11]", "result": 100, "unit": "%"}, {"measurement": "inhibition", "setting": "[12]", "result": 100, "unit": "%"}, {"measurement": "inhibition", "setting": "[13]", "result": 100, "unit": "%"}, {"measurement": "inhibition", "setting": "[14]", "result": 100, "unit": "%"}, {"measurement": "residual activity", "setting": "[15]", "result": 100, "unit": "%"}]}
